PubChem BioAssay (NCI)
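A five-concentration, 48-hour dose response in 96-well plates underlies each endpoint, interpolated linearly between surrounding concentrations. GI50 marks 50% less growth. TGI: total growth inhibition.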

What was measured:
Assay in all cases: NCI tumour cell line growth inhibition, 48 h
[1] = tested on: A498 renal
[2] = tested on: A549 NSCLC
[3] = tested on: HOP-62 NSCLC
[4] = tested on: LOX IMVI melanoma
[5] = tested on: NCI/ADR-RES ovarian
[6] = tested on: SF-539 CNS
[7] = tested on: SK-MEL-5 melanoma
[8] = tested on: SNB-19 CNS
[9] = tested on: UACC-62 melanoma
[10] = tested on: UO-31 renal

Row | Structure (SMILES) | GI50 [1] | TGI [1] | GI50 [2] | TGI [2] | GI50 [3] | TGI [3] | GI50 [4] | TGI [4] | GI50 [5] | TGI [5] | GI50 [6] | TGI [6] | GI50 [7] | TGI [7] | GI50 [8] | TGI [8] | GI50 [9] | TGI [9] | GI50 [10] | TGI [10]
1 | COc1cc(CN(c2ccc(C)cc2)C2OC(=O)c3ccccc32)cc(OC)c1OC (stereo not given) | 0.361 µM | 4.52 µM | 0.584 µM | > 100 µM | 0.627 µM | > 67.4 µM | 0.635 µM | > 100 µM | 0.389 µM | > 100 µM | 0.393 µM | > 100 µM | 0.271 µM | 1.76 µM | 0.689 µM | > 100 µM | 0.582 µM | > 100 µM | 2.7 µM | > 100 µM
2 | Nc1nc2c(ccc3ccccc32)s1 | 74.1 µM | > 100 µM | > 100 µM | > 100 µM | > 100 µM | > 100 µM | 78.2 µM | > 100 µM | > 100 µM | > 100 µM | > 100 µM | > 100 µM | 72.7 µM | > 100 µM | > 100 µM | > 100 µM | 75.8 µM | > 100 µM | 74.3 µM | > 100 µM
3 | COc1cccc(NC(=O)c2sc3nc4c(cc3c2N)C(O)CCC4)c1 (stereo not given) | 0.112 µM | 4 µM | 0.287 µM | > 100 µM | 0.26 µM | 64.6 µM | 0.766 µM | > 100 µM | 0.206 µM | > 100 µM | 0.14 µM | 0.606 µM | 0.311 µM | 8.29 µM | 2.12 µM | > 93.2 µM | 0.15 µM | > 100 µM | 0.607 µM | > 100 µM
4 | Nc1ccc(-c2ccc3ncc4ccc(=O)n(-c5cccc(C(F)(F)F)c5)c4c3c2)cn1 | < 0.01 µM | < 0.01 µM | < 0.01 µM | 2.6 µM | < 0.01 µM | 1.47 µM | < 0.01 µM | 0.481 µM | 0.02 µM | 13.1 µM | < 0.01 µM | 0.039 µM | < 0.01 µM | 0.0767 µM | < 0.013 µM | 52.3 µM | < 0.01 µM | 0.026 µM | < 0.01 µM | 2.39 µM
5 | COc1ccc2c(c1)CCc1c(CO)c(COC(=O)NC(C)C)n(C)c1-2 |  | 77.5 µM |  | > 78.5 µM |  | 75.6 µM |  | 25.4 µM |  | 59.2 µM |  | > 87 µM |  | 15.1 µM |  | 56.1 µM |  | 22.7 µM |  | 19.6 µM
6 | C[C@H](NC(=O)c1c(C(F)F)nn(C)c1Oc1cccc(C(F)(F)F)c1)c1ccc(C(=O)O)cc1 | > 100 µM | > 100 µM | > 100 µM | > 100 µM | > 100 µM | > 100 µM | > 100 µM | > 100 µM | > 100 µM | > 100 µM | > 100 µM | > 100 µM | > 100 µM | > 100 µM | > 100 µM | > 100 µM | > 100 µM | > 100 µM | > 100 µM | > 100 µM
7 | CC1=C(C#N)C(/C=C(\Cl)c2ccc(F)cc2)C(C#N)=C(C)N1 | > 100 µM | > 100 µM | > 100 µM | > 100 µM | > 100 µM | > 100 µM | > 100 µM | > 100 µM | > 100 µM | > 100 µM | > 100 µM | > 100 µM | > 100 µM | > 100 µM | > 100 µM | > 100 µM | 81 µM | > 100 µM | > 100 µM | > 100 µM
8 | CC(C)=C1CCC(CN2CCOCC2)C1=O (stereo not given) |  | 52.3 µM |  | 43.1 µM |  | > 93.5 µM |  | 41.9 µM |  | 40.8 µM |  | 31.9 µM |  | 30.7 µM |  | > 91.9 µM |  | 33 µM |  | 32.6 µM
9 | COc1ccc(-c2n[nH]nc2-c2cc(OC)c3c(c2)OCO3)cc1 | < 0.01 µM | 0.0693 µM | 0.0239 µM | > 100 µM | < 0.0135 µM | > 68.1 µM | 0.0649 µM | 16 µM | < 0.01 µM | 0.982 µM | 0.0154 µM | 0.0449 µM | 0.0267 µM | 0.899 µM | 0.0441 µM | > 100 µM | < 0.01 µM | 49.2 µM | 0.0505 µM | 73 µM
10 | CC[C@@H](O)C[C@H]1CCC[C@@]2(C[C@@H]3OC(=O)/C=C/[C@@](C)(O)[C@@H](O)[C@H](C)[C@@H](O)[C@H](OC4CCC(N(C)C)C(C)O4)[C@@H](O)[C@](C)(O)CCCCC/C=C/[C@@H]4CC(C)(C)O[C@@]4(O)C[C@H](O2)[C@H]3C)O1 (stereo not given in full) |  | 57.4 µM |  | 20.5 µM |  | 26.2 µM |  | 9.46 µM |  | 24 µM |  | 23.3 µM |  | 2.04 µM |  | 20.6 µM |  | 21.8 µM |  | 18.1 µM
11 | COc1ccc2c(c1)O/C(=C\c1cccc(OCC(=O)Nc3nc(C)c(C)s3)c1)C2=O | 7.82 µM | > 68.4 µM | 2.18 µM | 6.43 µM | 0.542 µM | 1.13 µM | 0.189 µM | 0.351 µM | 21.3 µM | > 100 µM | 1.59 µM | 2.98 µM | 2 µM | > 100 µM | 27.5 µM | > 100 µM | 16.5 µM | > 100 µM | 0.547 µM | 1.02 µM
12 | COc1ccc2nc3cccc([N+](=O)[O-])c3c(NCCNCCN(C)C)c2c1 | 0.201 µM | 0.45 µM | 0.0712 µM | 0.518 µM | 0.183 µM | 0.698 µM | 0.0652 µM | 0.305 µM | 0.884 µM | 4.67 µM | 0.199 µM | 0.429 µM | 0.0325 µM | 0.13 µM | 0.223 µM | 1.17 µM | 0.121 µM | 0.3 µM | 0.119 µM | 0.377 µM
13 | CCc1nn2ncccc2c1-c1ccnc(NC2CC2)n1 | 9.73 µM | > 25 µM | > 25 µM | > 25 µM | > 25 µM | > 25 µM | > 25 µM | > 25 µM | > 25 µM | > 25 µM | > 25 µM | > 25 µM | > 25 µM | > 25 µM | > 25 µM | > 25 µM | > 25 µM | > 25 µM | > 24 µM | > 25 µM
14 | O=C1Nc2ccccc2/C1=C/c1cn(CC(O)Cn2cc(/C=C3\C(=O)Nc4ccccc43)c3ccccc32)c2ccccc12 (stereo not given) | 2.18 µM | 4.08 µM | 1.51 µM | 3.21 µM | 1.41 µM | 3.06 µM | 0.326 µM | 1.31 µM | 12.1 µM | 57.1 µM | 1.55 µM | 3.11 µM | 1.98 µM | 3.82 µM | 1.21 µM | 3.82 µM | 1.64 µM | 3.16 µM | 1.29 µM | 2.94 µM
